Values of other authors in PMC10846240, “Pharmacokinetic/pharmacodynamic integration of amphenmulin: a novel pleuromutilin derivative against Mycoplasma gallisepticum” (Microbiology Spectrum, 2023).
≈ marks a conversion by molar mass, not a printed value.

How the values were obtained:
Staphylococcus aureus = test system: Staphylococcus aureus; parameters: method as in PMID 30019769; conditions: neutropenic murine thigh and lung infection model; cited from earlier work
Streptococcus pneumoniae = test system: Streptococcus pneumoniae; parameters: method as in PMID 30019769; conditions: neutropenic murine thigh and lung infection model; cited from earlier work
[1] = parameters: method as in PMID 26747098; conditions: after intravenous injection; cited from earlier work
M. gallisepticum = test system: M. gallisepticum; parameters: method as in PMID 27656647, PMID 25845865; conditions: intratracheal infection model; cited from earlier work
[2] = test system: M. gallisepticum S6 strain; parameters: method as in PMID 27656647; conditions: same strain (S6); cited from earlier work

SMILES	character of activity (Staphylococcus aureus)	character of activity (Streptococcus pneumoniae)	free drug concentration in pulmonary epithelial lining fluid relative to plasma [1] [times]	optimized therapeutic dosages (M. gallisepticum) [mg/kg]	parameter most relevant to anti-mycoplasma effect (M. gallisepticum)	MIC [2] [µg/mL]
C=C[C@]1(C)C[C@@H](OC(=O)CS[C@@H]2CC[C@@H](N)C[C@H]2O)[C@]2(C)[C@H](C)CC[C@]3(CCC(=O)[C@H]32)[C@@H](C)[C@@H]1O [lefamulin]	time- and concentration-dependent activity	time- and concentration-dependent activity	5.7	–	–	–
C=C[C@]1(C)C[C@@H](OC(=O)CSCCN(CC)CC)[C@]2(C)[C@H](C)CC[C@]3(CCC(=O)[C@H]32)[C@@H](C)[C@@H]1O [tiamulin]	–	–	–	45	AUC/MIC	0.03 (≈ 0.0608 µM)
C=C[C@]1(C)C[C@@H](OC(=O)CSC(C)(C)CNC(=O)[C@H](N)C(C)C)[C@]2(C)[C@H](C)CC[C@]3(CCC(=O)[C@H]32)[C@@H](C)[C@@H]1O [valnemulin]	–	–	–	6.5	AUC/MIC	–
